One block for each compound: values may come before it.
Key:
[1] = target: Mitogen-activated protein kinase kinase kinase kinase 5 (Homo sapiens) (UniProt Q9Y4K4); experiment: Selectivity interaction (Kinase panel (Z-LYTE Assay)) EUB0001632a MAP4K5; conditions: at 10 µM
[2] = target: Peroxisome proliferator-activated receptor gamma (Homo sapiens) (UniProt P37231); experiment: Selectivity interaction (Eurofins CEREP Diversity Profile (receptors and ion channels)) EUB0000279b PPARG; conditions: at 10 µM
[3] = target: T1, Megakaryocyte-associated tyrosine-protein kinase (Homo sapiens) (UniProt P42679); experiment: Selectivity interaction (KinomeScan (DiscoverX)) EUB0000666a MATK; conditions: at 10 µM
T1 sequence (whole entry): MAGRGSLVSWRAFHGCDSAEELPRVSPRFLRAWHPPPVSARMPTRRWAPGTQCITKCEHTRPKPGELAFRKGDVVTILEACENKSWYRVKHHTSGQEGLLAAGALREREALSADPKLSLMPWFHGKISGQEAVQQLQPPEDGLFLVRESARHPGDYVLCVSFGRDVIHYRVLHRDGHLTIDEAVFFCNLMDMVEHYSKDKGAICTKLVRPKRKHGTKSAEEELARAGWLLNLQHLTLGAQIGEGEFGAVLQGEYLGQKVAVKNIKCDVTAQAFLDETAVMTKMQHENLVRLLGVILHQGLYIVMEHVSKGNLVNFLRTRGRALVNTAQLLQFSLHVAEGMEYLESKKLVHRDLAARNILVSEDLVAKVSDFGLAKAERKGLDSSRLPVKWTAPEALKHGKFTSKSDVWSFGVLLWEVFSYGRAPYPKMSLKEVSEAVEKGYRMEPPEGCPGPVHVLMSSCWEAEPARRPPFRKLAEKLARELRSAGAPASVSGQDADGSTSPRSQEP

[4] = target: Serine/threonine-protein kinase Nek6 (Homo sapiens) (UniProt Q9HC98); experiment: Selectivity interaction (Kinase panel (literature)) EUB0001199aCl NEK6; conditions: at 1 µM
[5] = target: cAMP-dependent protein kinase catalytic subunit alpha (Homo sapiens, UniProt P17612); conditions: at 10 µM
[6] = target: Mitogen-activated protein kinase kinase kinase 9 (Homo sapiens) (UniProt P80192); experiment: Selectivity interaction (Kinase panel (Invitrogen)) EUB0000639a MAP3K9; conditions: at 200 nM
Mitogen-activated protein kinase kinase kinase 9 (Homo sapiens), sequence (P80192 whole entry, looked up): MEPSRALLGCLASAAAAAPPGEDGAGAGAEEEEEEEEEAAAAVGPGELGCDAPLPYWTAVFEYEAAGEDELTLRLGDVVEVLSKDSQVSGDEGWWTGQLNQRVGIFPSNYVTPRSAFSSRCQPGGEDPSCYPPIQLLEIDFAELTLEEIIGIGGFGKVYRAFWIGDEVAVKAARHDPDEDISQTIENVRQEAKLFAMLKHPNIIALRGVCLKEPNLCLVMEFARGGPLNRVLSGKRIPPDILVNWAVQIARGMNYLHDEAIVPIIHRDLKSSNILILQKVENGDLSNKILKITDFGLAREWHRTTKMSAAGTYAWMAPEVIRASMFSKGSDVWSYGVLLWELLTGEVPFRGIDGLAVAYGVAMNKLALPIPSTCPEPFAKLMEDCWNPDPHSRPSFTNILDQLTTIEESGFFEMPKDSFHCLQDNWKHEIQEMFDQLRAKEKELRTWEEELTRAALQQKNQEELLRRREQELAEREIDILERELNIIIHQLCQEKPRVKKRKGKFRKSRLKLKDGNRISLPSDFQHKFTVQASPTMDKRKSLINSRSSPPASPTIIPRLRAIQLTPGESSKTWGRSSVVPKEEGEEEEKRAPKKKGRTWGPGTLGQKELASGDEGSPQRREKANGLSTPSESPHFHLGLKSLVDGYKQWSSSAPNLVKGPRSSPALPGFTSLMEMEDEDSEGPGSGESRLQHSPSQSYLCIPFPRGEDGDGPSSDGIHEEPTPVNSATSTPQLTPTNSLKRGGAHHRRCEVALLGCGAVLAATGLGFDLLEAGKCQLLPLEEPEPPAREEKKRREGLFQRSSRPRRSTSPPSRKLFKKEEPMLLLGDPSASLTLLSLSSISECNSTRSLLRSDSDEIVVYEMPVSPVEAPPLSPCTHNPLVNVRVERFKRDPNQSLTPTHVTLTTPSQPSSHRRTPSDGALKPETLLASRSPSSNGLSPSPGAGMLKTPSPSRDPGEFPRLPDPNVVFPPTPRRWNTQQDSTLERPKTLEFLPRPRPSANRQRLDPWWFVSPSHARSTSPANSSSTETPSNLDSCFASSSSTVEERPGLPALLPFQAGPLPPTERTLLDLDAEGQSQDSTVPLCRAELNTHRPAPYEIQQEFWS

[7] = target: Serine/threonine-protein kinase 10 (Homo sapiens) (UniProt O94804); experiment: Selectivity interaction (ActivX KiNativ screen (kinase selectivity in THP-1 cell lysates)) EUB0000639a STK10; format: subcellular; conditions: lysate, at 0.2 µM
[8] = target: T2, Serine/threonine-protein kinase Chk1 (Homo sapiens) (UniProt O14757); experiment: Selectivity interaction (ProQinase) EUB0000171b CHEK1
T2 sequence (whole entry): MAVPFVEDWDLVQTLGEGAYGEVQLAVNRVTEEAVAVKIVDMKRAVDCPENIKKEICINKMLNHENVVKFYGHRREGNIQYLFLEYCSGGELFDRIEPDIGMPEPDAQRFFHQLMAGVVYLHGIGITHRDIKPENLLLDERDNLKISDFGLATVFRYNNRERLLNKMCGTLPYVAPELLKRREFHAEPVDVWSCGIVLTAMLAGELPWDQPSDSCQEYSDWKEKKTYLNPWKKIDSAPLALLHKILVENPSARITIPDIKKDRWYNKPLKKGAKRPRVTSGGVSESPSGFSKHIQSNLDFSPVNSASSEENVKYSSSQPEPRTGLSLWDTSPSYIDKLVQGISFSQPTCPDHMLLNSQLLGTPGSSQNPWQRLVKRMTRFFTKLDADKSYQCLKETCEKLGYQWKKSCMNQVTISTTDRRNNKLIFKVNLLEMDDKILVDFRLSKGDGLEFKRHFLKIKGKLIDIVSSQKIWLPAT

[9] = target: Phosphatidylinositol 4-phosphate 3-kinase C2 domain-containing subunit beta (Homo sapiens) (UniProt O00750); experiment: Selectivity interaction (ProQinase) EUB0000171b PIK3C2B
Phosphatidylinositol 4-phosphate 3-kinase C2 domain-containing subunit beta (Homo sapiens), sequence (O00750 whole entry, the tested form may be a part): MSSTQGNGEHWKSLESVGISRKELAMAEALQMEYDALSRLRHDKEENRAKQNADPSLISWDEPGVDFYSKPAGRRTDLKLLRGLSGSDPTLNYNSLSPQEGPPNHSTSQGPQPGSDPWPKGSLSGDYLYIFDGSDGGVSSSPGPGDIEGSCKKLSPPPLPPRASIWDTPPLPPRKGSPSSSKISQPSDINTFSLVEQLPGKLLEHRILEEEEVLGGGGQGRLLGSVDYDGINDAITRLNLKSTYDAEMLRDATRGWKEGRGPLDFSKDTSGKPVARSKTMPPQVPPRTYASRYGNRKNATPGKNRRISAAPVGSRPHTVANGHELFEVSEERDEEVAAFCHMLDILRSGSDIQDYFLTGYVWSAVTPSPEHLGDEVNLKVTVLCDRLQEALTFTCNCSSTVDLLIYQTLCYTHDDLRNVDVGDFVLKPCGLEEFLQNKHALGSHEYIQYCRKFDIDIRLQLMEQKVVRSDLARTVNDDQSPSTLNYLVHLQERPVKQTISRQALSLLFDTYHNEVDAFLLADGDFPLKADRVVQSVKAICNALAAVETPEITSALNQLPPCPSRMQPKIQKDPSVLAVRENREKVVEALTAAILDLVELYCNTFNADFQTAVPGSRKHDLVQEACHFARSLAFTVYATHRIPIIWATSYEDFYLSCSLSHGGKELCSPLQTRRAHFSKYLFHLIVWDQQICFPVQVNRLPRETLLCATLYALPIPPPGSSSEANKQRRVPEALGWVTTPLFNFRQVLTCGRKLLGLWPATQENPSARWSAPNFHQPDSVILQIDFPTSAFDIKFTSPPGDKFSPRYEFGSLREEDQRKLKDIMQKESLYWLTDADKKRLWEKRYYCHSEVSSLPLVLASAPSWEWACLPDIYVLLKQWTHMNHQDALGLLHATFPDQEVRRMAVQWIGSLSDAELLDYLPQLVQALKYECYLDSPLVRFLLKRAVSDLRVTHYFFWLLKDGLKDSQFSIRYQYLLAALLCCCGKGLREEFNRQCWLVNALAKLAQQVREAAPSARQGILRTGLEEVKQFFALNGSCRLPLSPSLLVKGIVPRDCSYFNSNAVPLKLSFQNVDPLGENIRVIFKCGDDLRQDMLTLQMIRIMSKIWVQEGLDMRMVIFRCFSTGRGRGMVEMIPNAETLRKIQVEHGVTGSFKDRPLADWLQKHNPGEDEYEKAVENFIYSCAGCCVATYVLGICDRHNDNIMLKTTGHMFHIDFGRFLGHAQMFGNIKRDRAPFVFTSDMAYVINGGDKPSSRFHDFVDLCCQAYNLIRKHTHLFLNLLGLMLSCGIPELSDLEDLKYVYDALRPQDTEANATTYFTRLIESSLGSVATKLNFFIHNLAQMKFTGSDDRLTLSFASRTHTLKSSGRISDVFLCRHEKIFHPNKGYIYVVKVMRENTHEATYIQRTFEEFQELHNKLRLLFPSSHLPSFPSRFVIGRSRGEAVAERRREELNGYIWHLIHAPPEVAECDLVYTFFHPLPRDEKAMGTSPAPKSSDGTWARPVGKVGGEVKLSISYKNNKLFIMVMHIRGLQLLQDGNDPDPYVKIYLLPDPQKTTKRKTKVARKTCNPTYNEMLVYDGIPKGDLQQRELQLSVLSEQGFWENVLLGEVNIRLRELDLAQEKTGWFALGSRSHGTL

[10] = target: Tyrosine-protein kinase CSK (Homo sapiens) (UniProt P41240); conditions: at 10 µM
[11] = target: Fibroblast growth factor receptor 4 (Homo sapiens, UniProt P22455); experiment: Selectivity interaction (KinomeScan (DiscoverX)) EUB0001049a FGFR4; conditions: at 1 µM
[12] = target: Homeodomain-interacting protein kinase 2 (Homo sapiens, UniProt Q9H2X6); experiment: Selectivity interaction (Enzymatic assay (Eurofins)) EUB0001049a HIPK2
[13] = target: Mitogen-activated protein kinase 1 (Homo sapiens, UniProt P28482); experiment: Selectivity interaction (KinomeScan (DiscoverX)) EUB0001049a MAPK1; conditions: at 1 µM
[14] = target: Receptor-type tyrosine-protein kinase FLT3 (Homo sapiens) (UniProt P36888); experiment: Selectivity interaction (Millipore kinase profiler) EUB0000124b FLT3; conditions: at 10 µM
[15] = target: T3, Serine/threonine-protein kinase ULK3 (Homo sapiens) (UniProt Q6PHR2); experiment: Selectivity interaction (Kinase panel (DSF assay)) EUB0001558a ULK3
T3 sequence (whole entry): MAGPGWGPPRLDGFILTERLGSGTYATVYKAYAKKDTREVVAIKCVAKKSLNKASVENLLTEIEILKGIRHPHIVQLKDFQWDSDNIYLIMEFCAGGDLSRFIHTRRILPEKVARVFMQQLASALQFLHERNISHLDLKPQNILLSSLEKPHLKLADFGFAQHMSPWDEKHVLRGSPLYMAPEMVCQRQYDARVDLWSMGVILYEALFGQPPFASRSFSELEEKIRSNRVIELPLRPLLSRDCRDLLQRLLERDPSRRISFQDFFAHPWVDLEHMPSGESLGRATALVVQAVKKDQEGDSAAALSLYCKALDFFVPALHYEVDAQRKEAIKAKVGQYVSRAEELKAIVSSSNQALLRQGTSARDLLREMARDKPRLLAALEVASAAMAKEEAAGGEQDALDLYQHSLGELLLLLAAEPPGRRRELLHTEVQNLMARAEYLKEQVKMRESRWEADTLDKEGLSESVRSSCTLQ

[16] = tested on: Tyrosine-protein kinase ABL1 (Homo sapiens), P00519 [H396P]; experiment: Selectivity interaction (KinomeScan (DiscoverX)) EUB0000655a ABL1; conditions: at 10 µM
[17] = target: Insulin-like growth factor 1 receptor (Homo sapiens, UniProt P08069); experiment: Selectivity interaction (KinomeScan (DiscoverX)) EUB0000655a IGF1R; conditions: at 10 µM
Insulin-like growth factor 1 receptor, sequence (P08069 31-736 limits assumed): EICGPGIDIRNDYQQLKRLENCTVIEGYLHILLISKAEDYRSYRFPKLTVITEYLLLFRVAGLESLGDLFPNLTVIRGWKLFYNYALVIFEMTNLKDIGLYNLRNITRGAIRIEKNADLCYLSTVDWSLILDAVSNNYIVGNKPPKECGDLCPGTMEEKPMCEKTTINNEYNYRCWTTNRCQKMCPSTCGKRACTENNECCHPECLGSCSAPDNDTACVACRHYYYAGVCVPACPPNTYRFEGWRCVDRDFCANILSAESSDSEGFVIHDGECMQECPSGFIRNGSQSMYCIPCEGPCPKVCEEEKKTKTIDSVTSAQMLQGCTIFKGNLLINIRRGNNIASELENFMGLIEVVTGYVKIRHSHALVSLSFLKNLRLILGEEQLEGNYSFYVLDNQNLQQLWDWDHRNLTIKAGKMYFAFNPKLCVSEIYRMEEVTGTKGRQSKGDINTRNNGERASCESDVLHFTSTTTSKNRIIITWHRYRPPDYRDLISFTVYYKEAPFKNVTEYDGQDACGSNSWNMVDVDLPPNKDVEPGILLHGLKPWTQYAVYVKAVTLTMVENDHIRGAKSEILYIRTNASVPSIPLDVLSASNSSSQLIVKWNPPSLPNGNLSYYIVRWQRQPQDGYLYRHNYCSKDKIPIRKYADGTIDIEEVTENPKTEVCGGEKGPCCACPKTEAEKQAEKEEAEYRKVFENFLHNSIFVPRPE
Insulin-like growth factor 1 receptor, sequence (P08069 741-1367 limits assumed): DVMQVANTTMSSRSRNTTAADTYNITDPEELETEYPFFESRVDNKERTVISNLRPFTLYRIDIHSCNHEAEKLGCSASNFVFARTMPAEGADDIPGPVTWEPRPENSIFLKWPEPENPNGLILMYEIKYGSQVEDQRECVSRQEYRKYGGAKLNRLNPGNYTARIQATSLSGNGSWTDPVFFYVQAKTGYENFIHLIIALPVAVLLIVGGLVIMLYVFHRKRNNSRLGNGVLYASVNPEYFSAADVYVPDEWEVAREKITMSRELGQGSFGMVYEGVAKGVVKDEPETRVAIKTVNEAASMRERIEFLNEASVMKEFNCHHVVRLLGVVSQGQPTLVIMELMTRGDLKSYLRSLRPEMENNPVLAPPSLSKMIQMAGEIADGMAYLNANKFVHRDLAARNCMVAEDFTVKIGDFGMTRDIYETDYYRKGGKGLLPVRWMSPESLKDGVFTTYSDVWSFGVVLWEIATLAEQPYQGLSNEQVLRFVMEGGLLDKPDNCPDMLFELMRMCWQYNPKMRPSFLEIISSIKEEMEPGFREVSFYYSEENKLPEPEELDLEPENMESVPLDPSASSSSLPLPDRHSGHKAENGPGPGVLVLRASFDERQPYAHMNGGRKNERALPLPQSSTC

[18] = tested on: Fibroblast growth factor receptor 3 (Homo sapiens), P22607 [G697C]; experiment: (§1) Selectivity interaction (KinomeScan (DiscoverX)) EUB0001079a FGFR3; conditions: at 1 µM
[19] = target: Fibroblast growth factor receptor 3 (Homo sapiens, UniProt P22607); experiment: as §1; conditions: at 1 µM
Fibroblast growth factor receptor 3, sequence (P22607 23-806 limits assumed): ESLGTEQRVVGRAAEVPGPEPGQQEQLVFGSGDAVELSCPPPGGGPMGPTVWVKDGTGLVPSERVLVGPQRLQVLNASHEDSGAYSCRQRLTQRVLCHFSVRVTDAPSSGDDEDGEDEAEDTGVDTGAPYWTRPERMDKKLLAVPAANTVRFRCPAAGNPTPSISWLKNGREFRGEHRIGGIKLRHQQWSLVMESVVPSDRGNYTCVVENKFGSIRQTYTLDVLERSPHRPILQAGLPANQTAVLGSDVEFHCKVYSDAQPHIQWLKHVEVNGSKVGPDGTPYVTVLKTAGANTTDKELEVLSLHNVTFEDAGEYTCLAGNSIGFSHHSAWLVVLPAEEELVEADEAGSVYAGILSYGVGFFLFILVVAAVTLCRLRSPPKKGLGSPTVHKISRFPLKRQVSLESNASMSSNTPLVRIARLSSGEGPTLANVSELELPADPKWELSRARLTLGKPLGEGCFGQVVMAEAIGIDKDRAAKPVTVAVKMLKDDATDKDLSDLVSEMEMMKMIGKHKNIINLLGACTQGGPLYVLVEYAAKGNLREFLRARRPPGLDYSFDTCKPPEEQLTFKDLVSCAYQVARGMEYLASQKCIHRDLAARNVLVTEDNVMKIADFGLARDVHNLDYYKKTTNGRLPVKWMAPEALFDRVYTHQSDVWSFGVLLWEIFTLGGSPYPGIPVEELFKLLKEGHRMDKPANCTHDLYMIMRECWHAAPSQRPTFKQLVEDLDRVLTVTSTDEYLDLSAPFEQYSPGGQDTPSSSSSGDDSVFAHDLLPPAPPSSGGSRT

[20] = target: 5-hydroxytryptamine receptor 1D (Homo sapiens) (UniProt P28221); experiment: Selectivity interaction (GPCR panel (PDSP screen)) EUB0001079a HTR1D; conditions: at 10 µM

% of control [1]: 3.28%
Compound: Cn1cc(-n2cnc3c(NCc4nc5cc(Cl)c(Cl)cc5[nH]4)nc(N4CCOCC4)nc32)cn1

% of control [2]: 105%
Compound: CC(=O)c1cc(-c2ccccc2OCC2CC2)c2ncccn12

% of inhibition [4]: 5%
Compound: CN1Cc2nccc(-c3cn(C)nc3-c3ccc(F)cc3)c2C1=O

% of control [5]: 100%
Compound: CCN(CC)CCCCNc1ncc2cc(-c3cc(OC)cc(OC)c3)c(NC(=O)NC(C)(C)C)nc2n1

% of inhibition [6]: 5.9%
% of inhibition [7]: -43.2%
Compound: CC[C@@H]1[C@H](F)C(=O)N[C@@H]1COc1nccc2cc(C(N)=O)c(OC)cc12 [ZIMLOVISERTIB]

% of control ([8]; at 1 µM): 94%
% of control ([8]; at 5 µM): 100%
% of control ([9]; at 1 µM): 132%
% of control ([9]; at 5 µM): 133%
Compound: C=CC(=O)Nc1cccc(C(=O)Nc2ccc(Nc3cc(-c4[nH]c(SC)nc4C)ccn3)cc2)c1

% of control [14]: 107%
Compound: CC(=O)Nc1cccc(-n2c(=O)n(C3CC3)c(=O)c3c(Nc4ccc(I)cc4F)n(C)c(=O)c(C)c32)c1

Further lines, the compound ahead of its results:

Compound: O=C(NOC[C@H](O)CO)c1ccc(F)c(F)c1Nc1ccc(I)cc1F
% of control [3]: 100%

Compound: COCC(=O)NC/C=C/c1ccc2ncnc(Nc3ccc(Oc4ccc(C)nc4)c(C)c3)c2c1 [CP-724714]
% of control [10]: 59%

Compound: COc1cc(Nc2nc(C)cc(-c3cnn4nc(OC)ccc34)n2)cc(C(F)(F)F)c1
% of control [11]: 100%
IC50 [12]: > 10 µM
% of control [13]: 100%

Compound: CC(C)(O)[C@H](F)CN1Cc2cc(NC(=O)c3cnn4cccnc34)c(N3CCOCC3)cc2C1=O
dTM [15]: 6.3 K

Compound: CN(C)CCOc1ccc(-c2nc(-c3ccncc3)c(-c3ccc4c(c3)CC/C4=N\O)[nH]2)cc1
% of control [16]: 6.9%
% of control [17]: 100%

Compound: Nc1cnc(N2CCc3cc(S(=O)(=O)Nc4c(F)cc(Cl)cc4F)cc(N4CCCC4=O)c32)nc1 [TP-020n]
% of control [18]: 89%
% of control [19]: 100%
% of inhibition [20]: 9.24%
